# Data taken from paper PMC3929365, “Benzimidazoisoquinolines: A New Class of Rapidly Metabolized Aryl Hydrocarbon Receptor (AhR) Ligands that Induce AhR-Dependent Tregs and Prevent Murine Graft-Versus-Host Disease” (PLoS ONE, 2014).
# How the values were obtained:
# donor CD4+ T cells = assay: AhR-Treg phenotype of alloactivated donor CD4+ T cells 48 h after initiating the GVH response; format: in vivo, B6D2F1 host mice
# Method: (§1) Splenocytes and lymphocytes were harvested from C57Bl/6 mice. In some experiments, T cells were purified by negative selection using a Pan-T kit (Miltenyi Biotec) and stained with 2 µM carboxyfluorescein succinimidyl ester (CFSE) (Life Technologies). At least 2×10^7 purified T cells or approximately 1×10^8 pooled splenocytes and lymphocytes were injected i.v. into B6D2F1 host mice to initiate the GVH response. GVHD pathology was assessed on a scale of 0 to 3 (0 = normal, 1 = moderate morbidity, 2 = severe morbidity, 3 = death) according to the following five criteria: weight-loss, posture, activity, fur texture and death and reported as a Clinical GVHD Score.
# (§2) Host mice were treated daily with vehicle, 10-Cl-BBQ or BBQ analogues by i.p. injection. The vehicle consisted of a mixture of 6.7% anisole and peanut oil. Mice treated with a single i.p. dose of 15 µg TCDD/kg body weight in the same vehicle were used as positive controls.
# Antibodies to CTLA-4, Foxp3, ICOS, CD62L, CD25, CD19, CD44) and a fixable viability dye were purchased from eBiosciences. Additional antibody reagents included CD4 and CD8 (Life Technologies); H-2D^d (Biolegend) and CD45RB (PharMingen). After surface staining, the cells were fixed and permeabilized with Cytofix/cytoperm (BD Biosciences) for intracellular CTLA-4 stain. The flow cytometry data were acquired on an FC500 instrument (Beckman Coulter) and the data were analyzed using WinList 7.0 (Verity Software House). Fluorescence minus one (FMO) controls were used for setting histogram gates during the analysis.
# Figure 3 10-Cl-BBQ induces an AhR-dependent Treg phenotype 48 h after initiating the GVH response. On day 0, B6D2F1 host mice in groups of 5 were injected with CFSE-labeled C57Bl/6 T cells and given 15 mg/kg 10-Cl-BBQ, 15 µg/kg TCDD or vehicle by i.p. injection. At 24 h, an additional dose of 7 mg/kg 10-Cl-BBQ or vehicle was given. […] Treatment mean ± SEM is shown in the quadrant of interest. […] C) AhR-dependent induction of the donor Treg phenotype by 10-Cl-BBQ. On day 0, B6D2F1 host mice in groups of 5 were injected with donor T cells obtained from AhR^+/+ or AhR^−/− C57Bl/6 mice. Host mice were treated with 2 mg/kg10-Cl-BBQ or vehicle immediately following donor cell transfer and again at 24 hr. […] D) Dose-dependent induction of Treg phenotype by 10-Cl-BBQ. On day 0, B6D2F1 host mice in groups of 3–5 were injected with C57Bl/6 T cells. Mice were immediately treated with 0, 0.4, 2 or 10 mg/kg 10-Cl-BBQ and again on day 1. On day 2, expression of markers associated with the AhR-Treg phenotype increased as the dose of 10-Cl-BBQ increased. E) In the same mice as in D, lymph nodes were harvested and analyzed for expression of genes that were previously shown to increase under the same GVH conditions with TCDD treatment (13). […] Changes in gene expression were calculated relative to the β-actin gene, and the fold-induction was calculated by the ΔΔCt method using the vehicle-treated samples as a control. * = p<0.05 relative to vehicle treatment. […]
# GVHD = assay: Graft-versus-host disease (GVHD) model, 15 days; format: in vivo; details: for GVHD pathology (clinical pathology score): 10 mg/kg then 2 mg/kg/day, day 15
# Method: as §1, §2
# Figure 4 10-Cl-BBQ suppresses GVHD in an AhR-dependent manner. A) B6D2F1 host mice were injected with wild-type (WT) or AhR-deficient (AhR^−/−) splenocytes to initiate the GVH response; mice were given 10-Cl-BBQ or vehicle treatments daily for 15 days. A single loading dose of 10 mg/kg 10-Cl-BBQ was given at the time of donor cell injection and a maintenance dose of 2 mg/kg was given every day thereafter until the end of the experiment. The progression of GVHD was monitored and a clinical pathology score as defined in Methods was calculated. GVHD was suppressed by 10-Cl-BBQ only if the donor cells expressed AhR. In a separate study, B6D2F1 host mice in groups of 6 were injected with splenocytes from C57Bl/6 mice to initiate the GVH response, and treated with 10-Cl-BBQ or vehicle daily for 15 days as in (A). TCDD (15 µg/kg) was given to an additional group of 6 mice on day 0 as a positive control. […] The donor cells were identified in the host spleen as the H-2D^d negative population.* = p<0.05 vs vehicle control. TEXT PRINTED IN THE PICTURE: (C) TCDD: 17 | (C) 10-Cl-BBQ: 11 | (E) TCDD: 29 | (E) 10-Cl-BBQ: 35 DOUBTS OF THE COPYIST ABOUT THIS PICTURE: Panels C and E: the numbers inside the flow cytometry plots are printed without any measure or unit, so they are copied as bare numbers (plot axes: CD44 vs CD45RB in C, CD19 vs H-2D^d in E). / The Vehicle control plots also print numbers (C: 36; E: 2). They are not listed in lines because Vehicle is a control, not a substance.
# activated T cells = assay: T cell proliferation in vitro (CFSE dilution, anti-CD3/anti-CD28); format: cell-based, C57Bl/6 mice; details: 100 nM, 72 h, anti-CD3 and anti-CD28
# Method: A. Splenocytes from C57Bl/6 mice were labeled with CFSE and activated in vitro with anti-CD3 and anti-CD28 in the presence of 100 nM 10-Cl-BBQ or DMSO for 72 h. B. C57Bl/6 donor T cells were labeled with CFSE and injected into B6D2F1 host mice to initiate the GVH response. Host mice (n = 5 per group) were treated with vehicle or 10-Cl-BBQ i.p. (10 mg/kg/d) for two days. Donor cells were identified by gating on CD4^+CFSE^+ cells. […] (TIF) Click here for additional data file.
smiles,measurement,setting,value
"O=c1c2cccc3cccc(c32)c2nc3ccc(Cl)cc3n12 [10-Cl-BBQ, 10-chloro-7H-benzimidazo[2,1-a]benzo[de]isoquinolin-7-one]",changes in parameters associated with AhR-Tregs,donor CD4+ T cells; 0.4 mg/kg/day for two days,failed to induce significant changes
same,induction of the Treg phenotype with AhR-deficient donor T cells,"donor CD4+ T cells; AhR−/− donor T cells, 2 mg/kg at 0 and 24 hr, day 2",failed to induce the Treg phenotype
same,minimum effective dose to induce Tregs,donor CD4+ T cells; i.p. for two days after initiation of the GVH response,2.0 mg/kg/day
same,GVHD pathology (clinical pathology score),GVHD; AhR-deficient donor cells,not affected
same,GVHD pathology (clinical pathology score),GVHD; AhR-wild type donor cells,significantly reduced
same,overt toxicity,GVHD; daily treatment during the GVH response,without overt toxicity
same,engraftment of donor cells in host spleen,"GVHD; day 15, 10 mg/kg then 2 mg/kg daily",significantly reduced the engraftment of donor cells
same,proliferation of activated T cells in vitro,activated T cells,did not inhibit proliferation
